Here are results for eleven compounds from patent publication US20230113037A1 (Bayer Aktiengesellschaft, priority 2019, published 2023).

“And” between values parts separate entries of the source, which are not always exact repeats. Equal values may be shown once. Read-outs that look alike come from different tables or passages of the source.

For experiment [1], the target named is T1, AHR (Mus musculus, UniProt P30561).
T1 sequence (P30561 1-848 P471L/N533S/M589L): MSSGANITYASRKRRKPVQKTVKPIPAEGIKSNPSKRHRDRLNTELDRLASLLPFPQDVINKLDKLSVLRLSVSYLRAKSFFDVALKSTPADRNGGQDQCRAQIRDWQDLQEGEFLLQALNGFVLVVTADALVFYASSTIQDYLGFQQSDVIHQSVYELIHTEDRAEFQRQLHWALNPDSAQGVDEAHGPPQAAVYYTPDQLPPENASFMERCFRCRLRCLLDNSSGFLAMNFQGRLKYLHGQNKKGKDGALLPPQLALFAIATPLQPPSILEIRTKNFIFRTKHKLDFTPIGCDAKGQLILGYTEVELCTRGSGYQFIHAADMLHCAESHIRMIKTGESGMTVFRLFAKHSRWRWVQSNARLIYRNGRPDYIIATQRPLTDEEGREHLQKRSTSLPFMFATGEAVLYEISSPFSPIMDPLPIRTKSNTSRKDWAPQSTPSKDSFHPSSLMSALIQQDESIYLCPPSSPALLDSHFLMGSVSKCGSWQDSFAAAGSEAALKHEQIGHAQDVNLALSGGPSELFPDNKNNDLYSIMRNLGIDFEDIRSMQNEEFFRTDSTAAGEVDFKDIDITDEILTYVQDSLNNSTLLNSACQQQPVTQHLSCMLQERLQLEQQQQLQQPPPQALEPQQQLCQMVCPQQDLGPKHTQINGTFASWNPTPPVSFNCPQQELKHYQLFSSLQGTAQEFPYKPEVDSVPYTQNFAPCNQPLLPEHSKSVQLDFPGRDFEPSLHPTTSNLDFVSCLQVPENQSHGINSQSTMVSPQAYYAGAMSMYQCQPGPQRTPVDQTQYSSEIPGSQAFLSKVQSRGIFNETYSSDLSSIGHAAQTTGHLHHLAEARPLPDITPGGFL
As to the kind of experiment: In vitro assay 3: antagonism in mouse cell line (AHR transactivation, firefly luciferase reporter, kynurenic acid prestimulated). It is filed as cell-based. The method in brief:
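Cells were first stimulated with kynurenic acid, then exposed to test compound, after which firefly luciferase from a DRE-containing AHR reporter was read out. Signal was scaled between positive and negative controls. Cells not given kynurenic acid provided the inhibition reference.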
In general terms: Reporter assays use an easily measured gene product as a stand-in for the process of interest.

Experiment [2] concerns the target T2, AHR (Homo sapiens, UniProt P35869).
T2 construct: U87 MG glioblastoma cells (ATCC #HTB-14) endogenously expressing AHR; endogenous in cells; host or cells: U87 MG glioblastoma cells (ATCC #HTB-14)
T2 sequence (P35869 11-848): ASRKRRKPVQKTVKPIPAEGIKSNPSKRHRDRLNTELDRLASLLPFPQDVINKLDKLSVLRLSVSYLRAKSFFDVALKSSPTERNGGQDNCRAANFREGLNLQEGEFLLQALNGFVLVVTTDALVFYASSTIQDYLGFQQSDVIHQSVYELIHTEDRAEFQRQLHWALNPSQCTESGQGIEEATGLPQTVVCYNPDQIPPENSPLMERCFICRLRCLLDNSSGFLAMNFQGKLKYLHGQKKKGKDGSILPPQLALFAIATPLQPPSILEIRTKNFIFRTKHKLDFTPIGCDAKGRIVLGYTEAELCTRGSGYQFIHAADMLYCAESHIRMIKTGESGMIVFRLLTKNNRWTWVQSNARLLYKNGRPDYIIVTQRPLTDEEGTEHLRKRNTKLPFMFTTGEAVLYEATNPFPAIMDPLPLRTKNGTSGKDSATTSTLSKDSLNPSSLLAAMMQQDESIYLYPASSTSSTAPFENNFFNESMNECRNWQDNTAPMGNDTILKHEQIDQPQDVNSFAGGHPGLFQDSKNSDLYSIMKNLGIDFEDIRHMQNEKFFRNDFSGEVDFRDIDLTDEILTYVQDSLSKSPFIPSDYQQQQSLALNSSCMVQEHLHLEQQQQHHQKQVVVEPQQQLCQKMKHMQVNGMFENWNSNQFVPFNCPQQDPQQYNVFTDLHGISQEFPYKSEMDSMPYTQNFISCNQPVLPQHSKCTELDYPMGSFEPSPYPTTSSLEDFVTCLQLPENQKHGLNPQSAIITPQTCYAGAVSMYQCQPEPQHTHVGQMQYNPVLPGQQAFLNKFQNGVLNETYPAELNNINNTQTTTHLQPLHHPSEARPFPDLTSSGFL
Briefly: In vitro assay 1: antagonism in human cell line (AHR transactivation, firefly luciferase reporter, kynurenic acid prestimulated). In kind it is cell-based. The note with it: AHR Antagonism Human IC50 [M]. The method in brief: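 U87 MG glioblastoma cells with endogenous AHR, stably carrying a DRE-driven firefly luciferase reporter and constitutive Renilla reporter, prestimulated with kynurenic acid before compound addition. Firefly and Renilla read by dual luciferase; Renilla flags toxicity; normalized to controls (150 μM kynurenic acid + 5 μM staurosporine as full inhibition); repeat values averaged or median.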

[3] abbreviates: mouse Hepa 1c1c7 cells, 200 μM kynurenic acid, 20 hours, read-out: AHR Antagonism Mouse IC50.
The mark [4] stands for this setting: Hepa 1c1c7 cells, 200 μM kynurenic acid, 20 hours, firefly luciferase reporter, read-out: AHR Antagonism Mouse IC50.

The term IC50 denotes the concentration needed to halve the response being measured. With `Cn1ccc(-c2nc3c4ccccc4nc(N[C@@H]4CNCCNC4=O)n3n2)n1` [Example 257, (6R)-6-{[2-(1-methyl-1H-pyrazol-3-yl)[1,2,4]triazolo[1,5-c]quinazolin-5-yl]amino}-1,4-diazepan-5-one], the IC50 in experiment [1] (setting [3]) stood at 12100 nM; in experiment [2], 6.29e-06 M.
Regarding `COc1cccc2c1nc(N[C@@H]1CCCCNC1=O)n1nc(-c3cnn(C4CCC4)c3)nc21` [Example 758, (3R)-3-{[2-(1-cyclobutyl-1H-pyrazol-4-yl)-7-methoxy[1,2,4]triazolo[1,5-c]quinazolin-5-yl]amino}azepan-2-one], the results for the half-inhibitory concentration (IC50) in experiment [1] (setting [3]) and in experiment [2] were 19.6 nM and 1.35e-08 M, respectively.
Consider `C[C@@H](Nc1nc2c(Br)cccc2c2nc(-c3cnn(C)c3)nn12)C(=O)NCC(C)(C)N` [Example 790, N-(2-amino-2-methylpropyl)-N^2-[7-bromo-2-(1-methyl-1H-pyrazol-4-yl)[1,2,4]triazolo[1,5-c]quinazolin-5-yl]-D-alaninamide], for which the IC50 in experiment [1] (setting [4]) amounted to 402 nM; in experiment [2] (firefly luciferase reporter), 4.14e-07 M.
For the compound `COc1ccc(-c2nc3c4cccc(Br)c4nc(N[C@H](C)C(=O)N4CC5(COC5)C4)n3n2)cc1` [Example 916, (2R)-2-{[7-bromo-2-(4-methoxyphenyl)[1,2,4]triazolo[1,5-c]quinazolin-5-yl]amino}-1-(2-oxa-6-azaspiro[3.3]heptan-6-yl)propan-1-one], the IC50 in experiment [1] (read-out: AHR Antagonism Mouse IC50, Hepa 1c1c7 cells, 200 μM kynurenic acid, 20 hours, firefly luciferase reporter) came out at 2.22 nM; in experiment [2] (firefly luciferase reporter), 1.06e-09 M.
For `CC(C)c1noc(-c2nc3c4ccccc4nc(N[C@@H]4CCCCNC4=O)n3n2)n1` [Example 133, (3R)-3-({2-[3-(propan-2-yl)-1,2,4-oxadiazol-5-yl][1,2,4]triazolo[1,5-c]quinazolin-5-yl}amino)azepan-2-one], the IC50 in experiment [1] (setting [3]) was determined as 32.7 nM; in experiment [2], 1.92e-08 M.
With `Cn1cc(-c2nc3c4cccc(Br)c4nc(N[C@H]4CS(=N)(=O)CCNC4=O)n3n2)cn1` (single isomer, unassigned) [Example 856], the IC50 in experiment [1] (setting [4]) was 19600 nM and > 20000 nM; in experiment [2] (firefly luciferase reporter), more than 2e-05 M.
Consider `COc1ccc(-c2nc3c4ccccc4nc(N[C@H](C)C(=O)N4CCOCC4)n3n2)cc1` [Example 778, (2R)-2-{[2-(4-methoxyphenyl)[1,2,4]triazolo[1,5-c]quinazolin-5-yl]amino}-1-(morpholin-4-yl)propan-1-one], for which the IC50 in experiment [1] (setting [3]) came to 4.32 nM; in experiment [2], 2.09e-09 M.
As to `COc1ccc(-c2nc3c4cccc(Br)c4nc(N[C@H](C)C(=O)NCC(C)(C)N)n3n2)cc1` [Example 789, N-(2-amino-2-methylpropyl)-N^2-[7-bromo-2-(4-methoxyphenyl)[1,2,4]triazolo[1,5-c]quinazolin-5-yl]-D-alaninamide], the IC50 stood at 17.1 nM in experiment [1] (setting [4]) and 4.3e-08 M in experiment [2] (firefly luciferase reporter).
`COc1ccc(-c2nc3c4cccc(Br)c4nc(N[C@H](C)C(=O)N4CCN(C)[C@H](C)C4)n3n2)cc1` [Example 913, (2R)-2-{[7-bromo-2-(4-methoxyphenyl)[1,2,4]triazolo[1,5-c]quinazolin-5-yl]amino}-1-[(3R)-3,4-dimethylpiperazin-1-yl]propan-1-one]: the IC50 stood at 1.71 nM in experiment [1] (setting [4]) and 1.32e-09 M in experiment [2] (firefly luciferase reporter).
Regarding `O=C1NCCCC[C@H]1Nc1nc2c(Cl)cccc2c2nc(-c3ccc(F)cc3)nn12` [Example 554, (3R)-3-{[7-chloro-2-(4-fluorophenyl)[1,2,4]triazolo[1,5-c]quinazolin-5-yl]amino}azepan-2-one], the IC50 in experiment [1] (setting [3]) was 2.45 nM; in experiment [2], 7.68e-09 M.
In the same order, the values of `COc1cccc(-c2nc3c4ccccc4nc(N[C@H](C)C(=O)NC4CCC4)n3n2)c1` [Example 109, N-cyclobutyl-N^2-[2-(3-methoxyphenyl)[1,2,4]triazolo[1,5-c]quinazolin-5-yl]-D-alaninamide] are 4.15 nM and 6.94e-09 M.
